Assay: head-to-tail lactamisation of side-chain-protected linear peptides, PyBOP (2 equiv), DIPEA (3 equiv, added dropwise), overnight at rt under N2; then TFA global deprotection and prep RP-HPLC
Conditions: the molecule shown is the open-chain precursor, DMF, 1.0 mM, 25.0 °C, 2 steps

SMILES | ring closure, yield over several steps (15-membered ring) | ring closure, yield over several steps (21-membered ring) | other results
CC(C)[C@H](NC(=O)CN)C(=O)N[C@@H](C)C(=O)N[C@@H](Cc1cn(C(=O)OC(C)(C)C)c2ccccc12)C(=O)N[C@@H](C)C(=O)O [H-Gly-Val-Ala-Trp(Boc)-Ala-OH] | 48% |  | 
CC(C)C[C@H](NC(=O)[C@@H]1CCCN1C(=O)[C@@H](NC(=O)[C@H](Cc1ccc(OC(C)(C)C)cc1)NC(=O)CN)C(C)C)C(=O)N[C@@H](Cc1cn(C(=O)OC(C)(C)C)c2ccccc12)C(=O)N1CCC[C@H]1C(=O)O [H-Gly-Tyr(tBu)-Val-Pro-Leu-Trp(Boc)-Pro-OH] |  | 57% | 
C[C@H](N)C(=O)N[C@@H](COC(C)(C)C)C(=O)N[C@@H](Cc1ccc(OC(C)(C)C)cc1)C(=O)N[C@@H](COC(C)(C)C)C(=O)N[C@@H](COC(C)(C)C)C(=O)N[C@@H](CCCCNC(=O)OC(C)(C)C)C(=O)N1CCC[C@H]1C(=O)N[C@@H](Cc1ccccc1)C(=O)N[C@@H](COC(C)(C)C)C(=O)O |  |  | ring closure, yield over several steps (27-membered ring): 62%
CC(C)C[C@H](NC(=O)CNC(=O)[C@H](Cc1cn(C(c2ccccc2)(c2ccccc2)c2ccccc2)cn1)NC(=O)[C@@H](NC(=O)CNC(=O)[C@@H](N)Cc1ccccc1)[C@@H](C)OC(C)(C)C)C(=O)N1CCC[C@H]1C(=O)N[C@@H](C)C(=O)N1CCC[C@H]1C(=O)O [H-Phe-Gly-Thr(tBu)-His(Trt)-Gly-Leu-Pro-Ala-Pro-OH] |  |  | ring closure, yield over several steps (27-membered ring): 57%
CC(C)C[C@H](NC(=O)CN)C(=O)N[C@@H](COC(C)(C)C)C(=O)N[C@@H](Cc1ccccc1)C(=O)N[C@@H](C)C(=O)N[C@@H](Cc1ccccc1)C(=O)N1CCC[C@H]1C(=O)O [H-Gly-Leu-Ser(tBu)-Phe-Ala-Phe-Pro-OH] |  | 54% | 
Cc1c(C)c(S(=O)(=O)NC(=N)NCCC[C@H](NC(=O)[C@H](Cc2ccc(OC(C)(C)C)cc2)NC(=O)CN)C(=O)N[C@@H](Cc2ccccc2)C(=O)N[C@@H](COC(C)(C)C)C(=O)O)c(C)c2c1OC(C)(C)C2 [H-Gly-Tyr(tBu)-Arg(Pbf)-Phe-Ser(tBu)-OH] | 64% |  | 
CC(C)C[C@H](NC(=O)CN)C(=O)N[C@@H](Cc1cn(C(c2ccccc2)(c2ccccc2)c2ccccc2)cn1)C(=O)N[C@@H](Cc1ccccc1)C(=O)N[C@@H](C)C(=O)N[C@@H](Cc1ccccc1)C(=O)N1CCC[C@H]1C(=O)O [H-Gly-Leu-His(Trt)-Phe-Ala-Phe-Pro-OH] |  | 56% | 
Cc1c(C)c(S(=O)(=O)NC(=N)NCCC[C@H](NC(=O)CN)C(=O)N[C@H](C(=O)N[C@@H](CCCCNC(=O)OC(C)(C)C)C(=O)N[C@@H](C)C(=O)O)C(C)C)c(C)c2c1OC(C)(C)C2 [H-Gly-Arg(Pbf)-Val-Lys(Boc)-Ala-OH] | 63% |  | 
CC(C)[C@H](NC(=O)CN)C(=O)N[C@@H](CCCCNC(=O)OC(C)(C)C)C(=O)N[C@@H](Cc1ccc(OC(C)(C)C)cc1)C(=O)N[C@@H](C)C(=O)O [H-Gly-Val-Lys(Boc)-Tyr(tBu)-Ala-OH] | 68% |  | 
CC(C)[C@H](NC(=O)[C@@H]1CCCN1C(=O)[C@@H](NC(=O)CN)C(C)C)C(=O)N[C@@H](Cc1cn(C(=O)OC(C)(C)C)c2ccccc12)C(=O)N[C@@H](C)C(=O)O [H-Gly-Val-Pro-Val-Trp(Boc)-Ala-OH] |  |  | ring closure, yield over several steps (18-membered ring): 51%

— publication PMC12667733
